Reference: the NIST ThermoML archive (doi:10.1016/j.jct.2011.09.001)
Numbers after ± are expanded uncertainties.

Columns and labels:
[1] = xn = mol fraction of the nth substance listed; conditions: 101 kPa, Liquid; for speed of sound: Sing-around technique in a fixed-path interferometer; for mass density: Vibrating tube method
[2] = refractive index (Na D-line) (dimensionless); xn = mol fraction of the nth substance listed; conditions: 101 kPa, Liquid, Standard Abbe refractometry

c1ccc2c(c1)CCCC2 [1,2,3,4-tetrahydronaphthalene] + CCCCCCCCCC
Conditions | mass density, [1] [kg/m3] | refractive index, [2] | speed of sound, [1] [m/s]
293.15 K, x1 = 0.1008 | 747.8 ± 0.3 | 1.4216 ± 0.0005 | 1269.3 ± 1.2
293.15 K, x1 = 0.2034 | 766.8 ± 0.3 | 1.4319 ± 0.0005 | 1285.2 ± 1.2
293.15 K, x1 = 0.3 | 786.3 ± 0.3 | 1.4422 ± 0.0005 | 1302.2 ± 1.2
293.15 K, x1 = 0.401 | 807.5 ± 0.3 | 1.4535 ± 0.0005 | 1320.2 ± 1.2
293.15 K, x1 = 0.494 | 828.5 ± 0.2 | 1.4648 ± 0.0005 | 1340.6 ± 1.2
293.15 K, x1 = 0.5949 | 852.8 ± 0.2 | 1.4778 ± 0.0005 | 1363.5 ± 1.2
293.15 K, x1 = 0.7009 | 880.2 ± 0.2 | 1.4925 ± 0.0005 | 1391.2 ± 1.2
293.15 K, x1 = 0.7974 | 907 ± 0.3 | 1.5071 ± 0.0005 | 1418.8 ± 1.2
293.15 K, x1 = 0.8997 | 937.9 ± 0.3 | 1.5239 ± 0.0005 | 1452.7 ± 1.2
293.15 K, x1 = 1 | 969.5 ± 0.2 | 1.5414 ± 0.0005 | 1489.5 ± 1.3
303.15 K, x1 = 0.1008 | 740.2 ± 0.3 | 1.4171 ± 0.0005 | 1230 ± 1.2
303.15 K, x1 = 0.2034 | 759.1 ± 0.3 | 1.4274 ± 0.0005 | 1246.1 ± 1.2
303.15 K, x1 = 0.3 | 778.6 ± 0.3 | 1.4376 ± 0.0005 | 1263.3 ± 1.2
303.15 K, x1 = 0.401 | 799.8 ± 0.3 | 1.449 ± 0.0005 | 1281.4 ± 1.2
303.15 K, x1 = 0.494 | 820.8 ± 0.3 | 1.4602 ± 0.0005 | 1301.9 ± 1.2
303.15 K, x1 = 0.5949 | 845.1 ± 0.2 | 1.4733 ± 0.0005 | 1324.9 ± 1.2
303.15 K, x1 = 0.7009 | 872.4 ± 0.2 | 1.488 ± 0.0005 | 1352.5 ± 1.2
303.15 K, x1 = 0.7974 | 899.1 ± 0.3 | 1.5026 ± 0.0005 | 1380.1 ± 1.2
303.15 K, x1 = 0.8997 | 930 ± 0.3 | 1.5193 ± 0.0005 | 1413.8 ± 1.2
303.15 K, x1 = 1 | 961.6 ± 0.2 | 1.5367 ± 0.0005 | 1450.1 ± 1.2
313.15 K, x1 = 0.1008 | 732.6 ± 0.3 | 1.4126 ± 0.0005 | 1191.3 ± 1.2
313.15 K, x1 = 0.2034 | 751.5 ± 0.3 | 1.4229 ± 0.0005 | 1207.6 ± 1.2
313.15 K, x1 = 0.3 | 770.9 ± 0.3 | 1.4331 ± 0.0005 | 1224.9 ± 1.2
313.15 K, x1 = 0.401 | 792.1 ± 0.3 | 1.4445 ± 0.0005 | 1243.1 ± 1.2
313.15 K, x1 = 0.494 | 812.9 ± 0.3 | 1.4556 ± 0.0005 | 1263.8 ± 1.2
313.15 K, x1 = 0.5949 | 837.3 ± 0.3 | 1.4688 ± 0.0005 | 1286.8 ± 1.2
313.15 K, x1 = 0.7009 | 864.7 ± 0.2 | 1.4835 ± 0.0005 | 1314.5 ± 1.2
313.15 K, x1 = 0.7974 | 891.4 ± 0.3 | 1.498 ± 0.0005 | 1342.1 ± 1.2
313.15 K, x1 = 0.8997 | 922.1 ± 0.3 | 1.5148 ± 0.0005 | 1375.5 ± 1.2
313.15 K, x1 = 1 | 953.7 ± 0.2 | 1.5321 ± 0.0005 | 1411.5 ± 1.2
323.15 K, x1 = 0.1008 | 724.9 ± 0.3 | 1.4081 ± 0.0005 | 1153.1 ± 1.2
323.15 K, x1 = 0.2034 | 743.8 ± 0.3 | 1.4183 ± 0.0005 | 1169.6 ± 1.2
323.15 K, x1 = 0.3 | 763.2 ± 0.3 | 1.4285 ± 0.0005 | 1187.1 ± 1.2
323.15 K, x1 = 0.401 | 784.3 ± 0.3 | 1.4399 ± 0.0005 | 1205.4 ± 1.2
323.15 K, x1 = 0.494 | 805.2 ± 0.3 | 1.4511 ± 0.0005 | 1226.2 ± 1.2
323.15 K, x1 = 0.5949 | 829.5 ± 0.3 | 1.4642 ± 0.0005 | 1249.3 ± 1.2
323.15 K, x1 = 0.7009 | 856.8 ± 0.3 | 1.479 ± 0.0005 | 1277.1 ± 1.2
323.15 K, x1 = 0.7974 | 883.6 ± 0.3 | 1.4933 ± 0.0005 | 1304.6 ± 1.2
323.15 K, x1 = 0.8997 | 914.2 ± 0.3 | 1.5102 ± 0.0005 | 1337.9 ± 1.2
323.15 K, x1 = 1 | 945.7 ± 0.2 | 1.5274 ± 0.0005 | 1373.6 ± 1.2
333.15 K, x1 = 0.1008 | 717.2 ± 0.3 | 1.4035 ± 0.0005 | 1115.5 ± 1.2
333.15 K, x1 = 0.2034 | 736 ± 0.3 | 1.4137 ± 0.0005 | 1132.1 ± 1.2
333.15 K, x1 = 0.3 | 755.4 ± 0.3 | 1.4238 ± 0.0005 | 1149.8 ± 1.2
333.15 K, x1 = 0.401 | 776.5 ± 0.3 | 1.4355 ± 0.0005 | 1168.2 ± 1.2
333.15 K, x1 = 0.494 | 797.3 ± 0.3 | 1.4463 ± 0.0005 | 1189.2 ± 1.2
333.15 K, x1 = 0.5949 | 821.6 ± 0.3 | 1.4597 ± 0.0005 | 1212.4 ± 1.2
333.15 K, x1 = 0.7009 | 849 ± 0.3 | 1.4744 ± 0.0005 | 1240.2 ± 1.2
333.15 K, x1 = 0.7974 | 875.7 ± 0.3 | 1.4887 ± 0.0005 | 1267.8 ± 1.2
333.15 K, x1 = 0.8997 | 906.3 ± 0.3 | 1.5055 ± 0.0005 | 1300.9 ± 1.2
333.15 K, x1 = 1 | 937.8 ± 0.2 | 1.5228 ± 0.0005 | 1336.4 ± 1.2
343.15 K, x1 = 0.1008 | 709.3 ± 0.3 | 1.3988 ± 0.0005 | 1078.4 ± 1.2
343.15 K, x1 = 0.2034 | 728.2 ± 0.3 | 1.4092 ± 0.0005 | 1095.2 ± 1.2
343.15 K, x1 = 0.3 | 747.6 ± 0.3 | 1.4192 ± 0.0005 | 1113.2 ± 1.2
343.15 K, x1 = 0.401 | 768.7 ± 0.3 | 1.4308 ± 0.0005 | 1131.6 ± 1.2
343.15 K, x1 = 0.494 | 789.5 ± 0.3 | 1.4418 ± 0.0005 | 1152.9 ± 1.2
343.15 K, x1 = 0.5949 | 813.7 ± 0.3 | 1.4549 ± 0.0005 | 1176.1 ± 1.2
343.15 K, x1 = 0.7009 | 841.1 ± 0.3 | 1.4697 ± 0.0005 | 1204.1 ± 1.2
343.15 K, x1 = 0.7974 | 867.7 ± 0.3 | 1.4841 ± 0.0005 | 1231.5 ± 1.2
343.15 K, x1 = 0.8997 | 898.4 ± 0.3 | 1.5008 ± 0.0005 | 1264.7 ± 1.2
343.15 K, x1 = 1 | 929.8 ± 0.2 | 1.518 ± 0.0005 | 1299.8 ± 1.2
